# Tests used:
# Format in all cases: in vivo
# [1] = test system: galium (catchweed bedstraw, Galium aparine); assay: Test A postemergence, galium; conditions: Postemergence
# Outline: (§1)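 Greenhouse pot test in a loam–sand blend; compounds delivered in a non-phytotoxic solvent carrying a surfactant, applied either as a directed spray to soil at seeding or over seedlings 2 to 10 cm high with one to two leaves.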
# [2] = test system: Ryegrass, Italian (Italian ryegrass, Lolium multiflorum); assay: Test A postemergence, Ryegrass, Italian; conditions: Postemergence
# Outline: (§2)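 Test chemicals, formulated in a non-phytotoxic solvent mixture with surfactant, were sprayed postemergence on plants 2 to 10 cm tall at the one- to two-leaf stage. Preemergence treatment was a directed soil spray onto freshly seeded pots. Both used a loam soil and sand blend.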
# kochia (Bassia scoparia) [3] = assay: Test A postemergence, kochia; conditions: Postemergence
# Outline: as §2
# [4] = test system: blackgrass (Alopecurus myosuroides); assay: Test A postemergence, blackgrass; conditions: Postemergence, 0 to 100 scale (0 no effect, 100 complete control)
# Outline: as §2
# [5] = test system: barnyardgrass (Echinochloa crus-galli); assay: Test A preemergence, barnyardgrass; conditions: Preemergence; for Barnyardgrass plant response rating: 125 g ai/ha, visual injury on 0 to 100 scale (0 no effect, 100 complete control), approximately 10 days; for Plant response rating, Barnyardgrass: 0 to 100 scale (0 no effect, 100 complete control)
# Outline: as §2
# [6] = test system: Foxtail, Giant (giant foxtail, Setaria faberi); assay: Test A postemergence, Foxtail, Giant; conditions: Postemergence
# Outline: as §2
# [7] = test system: wheat (Triticum aestivum); assay: Test A postemergence, wheat; conditions: Postemergence
# Outline: as §1
# corn (Zea mays) = assay: Test A postemergence, corn; conditions: Postemergence
# Outline: as §2
# [8] = test system: pigweed (Amaranthus retroflexus); assay: Test A postemergence, pigweed; conditions: Postemergence
# Outline: as §2
# [9] = test system: ragweed (common ragweed, Ambrosia artemisiifolia); assay: Test A preemergence, ragweed; conditions: Preemergence; for Ragweed plant response rating: 125 g ai/ha, visual injury on 0 to 100 scale (0 no effect, 100 complete control), approximately 10 days; for Plant response rating, Ragweed: 0 to 100 scale (0 no effect, 100 complete control)
# Outline: as §2
# kochia (Bassia scoparia) [10] = assay: Test A preemergence, kochia; conditions: Preemergence; for Kochia plant response rating: 125 g ai/ha, visual injury on 0 to 100 scale (0 no effect, 100 complete control), approximately 10 days; for Plant response rating, Kochia: 0 to 100 scale (0 no effect, 100 complete control)
# Outline: as §2
# [11] = test system: Foxtail, Giant (giant foxtail, Setaria faberi); assay: Test A preemergence, Foxtail, Giant; conditions: Preemergence; for Foxtail, Giant plant response rating: 125 g ai/ha, visual injury on 0 to 100 scale (0 no effect, 100 complete control), approximately 10 days; for Plant response rating, Foxtail, Giant: 0 to 100 scale (0 no effect, 100 complete control)
# Outline: as §2
# [12] = test system: Ryegrass, Italian (Italian ryegrass, Lolium multiflorum); assay: Test A preemergence, Ryegrass, Italian; conditions: Preemergence; for Ryegrass, Italian plant response rating: 125 g ai/ha, visual injury on 0 to 100 scale (0 no effect, 100 complete control), approximately 10 days; for Plant response rating, Ryegrass, Italian: 0 to 100 scale (0 no effect, 100 complete control)
# Outline: as §2
# [13] = test system: pigweed (Amaranthus retroflexus); assay: Test A preemergence, pigweed; conditions: for Pigweed plant response rating: 125 g ai/ha, visual injury on 0 to 100 scale (0 no effect, 100 complete control), approximately 10 days; for Plant response rating, Pigweed: 0 to 100 scale (0 no effect, 100 complete control)
# Outline: as §1
# [14] = test system: barnyardgrass (Echinochloa crus-galli); assay: Test A postemergence, barnyardgrass; conditions: Postemergence, 0 to 100 scale (0 no effect, 100 complete control)
# Outline: as §1
# [15] = test system: ragweed (common ragweed, Ambrosia artemisiifolia); assay: Test A postemergence, ragweed; conditions: Postemergence
# Outline: as §2
# [16] = 125 g ai/ha, 0 to 100 scale (0 no effect, 100 complete control)
# [17] = 500 g ai/ha, visual injury vs untreated controls after approx. 10 days, 0 to 100 scale (0 no effect, 100 complete control)
# [18] = 500 g ai/ha, visual injury vs untreated controls after approx. 10 days
# [19] = 31 g ai/ha, visual injury on 0 to 100 scale (0 no effect, 100 complete control), approx. 10 days
# [20] = 125 g ai/ha, visual injury approx. 10 days, 0 to 100 scale (0 no effect, 100 complete control)
# [21] = 125 g ai/ha, visual injury approx. 10 days
# [22] = 31 g ai/ha, visual injury, approx. 10 days
# [23] = 500 g ai/ha, visual injury, 0 to 100 scale (0 no effect, 100 complete control), approx. 10 days
# [24] = 500 g ai/ha, visual injury, approx. 10 days
compound,measurement,setting,value
Cc1cc(C)c(C2=NOC3(CCC(C)(C)CC3)C2)cc1NS(=O)(=O)C(F)(F)F [Compound 163],"Plant response rating, Galium",[1]; [16],70
same,Galium plant response rating,[1]; [17],90
same,"Plant response rating, Ryegrass, Italian",[2]; [16],0
same,"Ryegrass, Italian plant response rating",[2]; [17],30
same,"Plant response rating, Kochia",kochia (Bassia scoparia) [3]; [16],10
same,Kochia plant response rating,kochia (Bassia scoparia) [3]; [17],60
same,"Plant response rating, Blackgrass",[4]; 125 g ai/ha,20
same,Blackgrass plant response rating,[4]; [18],30
same,Barnyardgrass plant response rating,[5],90
same,"Plant response rating, Barnyardgrass",[5]; 500 g ai/ha,100
same,"Plant response rating, Foxtail, Giant",[6]; [16],0
same,"Foxtail, Giant plant response rating",[6]; [17],10
same,"Plant response rating, Wheat",[7]; [16],0
same,Wheat plant response rating,[7]; [17],0
same,"Plant response rating, Corn",corn (Zea mays); [16],0
same,Corn plant response rating,corn (Zea mays); [17],60
same,"Plant response rating, Pigweed",[8]; [16],60
same,Pigweed plant response rating,[8]; [17],80
same,Ragweed plant response rating,[9],20
same,"Plant response rating, Ragweed",[9]; 500 g ai/ha,60
same,Kochia plant response rating,kochia (Bassia scoparia) [10],0
same,"Plant response rating, Kochia",kochia (Bassia scoparia) [10]; 500 g ai/ha,80
same,"Foxtail, Giant plant response rating",[11],50
same,"Plant response rating, Foxtail, Giant",[11]; 500 g ai/ha,90
same,"Ryegrass, Italian plant response rating",[12],80
same,"Plant response rating, Ryegrass, Italian",[12]; 500 g ai/ha,100
same,Pigweed plant response rating,[13],50
same,"Plant response rating, Pigweed",[13]; 500 g ai/ha,100
same,"Plant response rating, Barnyardgrass",[14]; 125 g ai/ha,0
same,Barnyardgrass plant response rating,[14]; [18],80
same,"Plant response rating, Ragweed",[15]; [16],0
same,Ragweed plant response rating,[15]; [17],30
COC1CN(C(=O)c2cc(NS(=O)(=O)C(F)(F)F)c(C)cc2C)C1 [Compound 111],"Plant response rating, Galium",[1]; [19],50
same,"Plant response rating, Galium",[1]; [20],70
same,"Plant response rating, Ryegrass, Italian",[2]; [19],30
same,"Plant response rating, Ryegrass, Italian",[2]; [20],30
same,"Plant response rating, Kochia",kochia (Bassia scoparia) [3]; [19],20
same,"Plant response rating, Kochia",kochia (Bassia scoparia) [3]; [20],60
same,"Plant response rating, Blackgrass",[4]; 31 g ai/ha,0
same,"Plant response rating, Blackgrass",[4]; [21],0
same,"Plant response rating, Barnyardgrass",[5]; [22],10
same,Barnyardgrass plant response rating,[5],30
same,"Plant response rating, Foxtail, Giant",[6]; [19],0
same,"Plant response rating, Foxtail, Giant",[6]; [20],60
same,"Plant response rating, Wheat",[7]; [19],0
same,"Plant response rating, Wheat",[7]; [20],50
same,"Plant response rating, Corn",corn (Zea mays); [19],0
same,"Plant response rating, Corn",corn (Zea mays); [20],40
same,"Plant response rating, Pigweed",[8]; [19],20
same,"Plant response rating, Pigweed",[8]; [20],90
same,"Plant response rating, Ragweed",[9]; [22],10
same,Ragweed plant response rating,[9],40
same,"Plant response rating, Kochia",kochia (Bassia scoparia) [10]; [22],0
same,Kochia plant response rating,kochia (Bassia scoparia) [10],50
same,"Plant response rating, Foxtail, Giant",[11]; [22],0
same,"Foxtail, Giant plant response rating",[11],60
same,"Plant response rating, Ryegrass, Italian",[12]; [22],0
same,"Ryegrass, Italian plant response rating",[12],70
same,"Plant response rating, Pigweed",[13]; [22],10
same,Pigweed plant response rating,[13],90
same,"Plant response rating, Barnyardgrass",[14]; 31 g ai/ha,40
same,"Plant response rating, Barnyardgrass",[14]; [21],80
same,"Plant response rating, Ragweed",[15]; [19],70
same,"Plant response rating, Ragweed",[15]; [20],90
CCn1cc(-c2cc(N(S(=O)(=O)C(F)(F)F)S(=O)(=O)C(F)(F)F)c(C)cc2C)c(=O)n(C)c1=O [Compound 30],"Plant response rating, Galium",[1]; [20],70
same,"Plant response rating, Galium",[1]; [23],90
same,"Plant response rating, Ryegrass, Italian",[2]; [20],40
same,"Plant response rating, Ryegrass, Italian",[2]; [23],70
same,"Plant response rating, Kochia",kochia (Bassia scoparia) [3]; [20],10
same,"Plant response rating, Kochia",kochia (Bassia scoparia) [3]; [23],50
same,"Plant response rating, Blackgrass",[4]; [21],60
same,"Plant response rating, Blackgrass",[4]; [24],80
same,Barnyardgrass plant response rating,[5],90
same,"Plant response rating, Barnyardgrass",[5]; 500 g ai/ha,90
same,"Plant response rating, Foxtail, Giant",[6]; [20],70
same,"Plant response rating, Foxtail, Giant",[6]; [23],90
same,"Plant response rating, Wheat",[7]; [20],60
same,"Plant response rating, Wheat",[7]; [23],70
same,"Plant response rating, Corn",corn (Zea mays); [20],0
same,"Plant response rating, Corn",corn (Zea mays); [23],40
same,"Plant response rating, Pigweed",[8]; [20],40
same,"Plant response rating, Pigweed",[8]; [23],60
same,Ragweed plant response rating,[9],20
same,"Plant response rating, Ragweed",[9]; 500 g ai/ha,40
same,Kochia plant response rating,kochia (Bassia scoparia) [10],70
same,"Plant response rating, Kochia",kochia (Bassia scoparia) [10]; 500 g ai/ha,90
same,"Foxtail, Giant plant response rating",[11],80
same,"Plant response rating, Foxtail, Giant",[11]; 500 g ai/ha,100
same,"Ryegrass, Italian plant response rating",[12],90
same,"Plant response rating, Ryegrass, Italian",[12]; 500 g ai/ha,90
same,Pigweed plant response rating,[13],20
same,"Plant response rating, Pigweed",[13]; 500 g ai/ha,60
same,"Plant response rating, Barnyardgrass",[14]; [21],90
same,"Plant response rating, Barnyardgrass",[14]; [24],90
same,"Plant response rating, Ragweed",[15]; [20],40
same,"Plant response rating, Ragweed",[15]; [23],40

# — US20230278972A1, “SUBSTITUTED HALOALKYL SULFONANILIDE HERBICIDES” (FMC Corporation, priority 2020, published 2023)
